Source: patent publication US9469645B2, “Compounds and compositions for the treatment of parasitic diseases” (Novartis AG, priority 2009, dated 2016)
Read-outs that look alike come from different tables or passages of the source.

Tests used:
W2 strain = assay: parasite proliferation assay in infected red blood cells (SYBR Green I), W2 strain; assay type: cell-based
Excerpt: (§1) Compounds of the invention can be assayed to measure their capacity to inhibit proliferation of parasitemia in infected red blood cells. The proliferation is quantified by the addition of SYBR Green I (INVITROGEN)® dye which has a high affinity for double stranded DNA.

3D7 P. falciparum strain = assay: parasite proliferation assay in infected red blood cells (SYBR Green I); assay type: cell-based, Plasmodium falciparum; conditions: 3D7 strain, read-out: EC50 3D7 strain
Excerpt: as §1
The following assay illustrates the invention without in any way limiting the scope of the invention. This parasite proliferation assay measures the increase in parasite DNA content using a DNA intercalating dye, SYBR Green®.
3D7 P. falciparum strain is grown in complete culturing media until parasitemia reaches 3% to 8% with O+ human erythrocytes. 20 μl of screening media is dispensed into 384 well assay plates. […] 10 μl of lysis buffer (saponin, triton-X, EDTA) containing a 10× solution of SYBR Green I® in RPMI media is dispensed into the plates. The plates are lidded and kept at room temperature overnight for the lysis of the infected red blood cells.

[1] = Plasmodium falciparum, 3D7, Erythrocyte

SMILES | EC50 (W2 strain; Erythrocyte) [nM] | EC50 (3D7 P. falciparum strain; [1]) [nM] | EC50 (W2 strain) [nM] | EC50 (3D7 P. falciparum strain) [nM]
Cc1ccc(Nc2c(-c3ccc(F)cc3)nc3n2CCN(C(=O)[C@@H]2CCCN2)C3)cc1 [Compound 90] | 600 | 650 | – | –
Cc1ccc(Nc2c(-c3ccc(F)cc3)nc3n2CCN(C(=O)C2CCCN2)C3)cc1 (stereo not drawn) [Compound 91] | 154 | 120 | – | –
Cc1ccc(Nc2c(-c3ccc(F)cc3)nc3n2CCN(C(=O)C2CCCNC2)C3)cc1 (stereo not drawn) [Compound 92] | – | – | 1480 | 1300
Cc1ccc(Nc2c(-c3ccc(F)cc3)nc3n2CCN(C(=O)C2CCCNC2)C3)cc1 (stereo not drawn) [Compound 93] | – | – | 1510 | 1670
CC(C)(N)C(=O)N1CCn2c(nc(-c3ccc(F)cc3)c2Nc2ccc(Cl)c(F)c2)C1 [Compound 94] | 52 | 40 | – | –
Cc1ccc(Nc2c(-c3ccc(F)cc3)nc3n2CCN(C(=O)C2CCNC2)C3)cc1 (stereo not drawn) [Compound 95] | – | – | 707 | 1540
Cc1ccc(Nc2c(-c3ccc(F)cc3)nc3n2CCN(C(=O)C2CCNC2)C3)cc1 (stereo not drawn) [Compound 96] | – | – | 321 | 580
Cc1ccc(Nc2c(-c3ccc(F)cc3)nc3n2CCN(C(=O)[C@H](N)c2ccccc2)C3)cc1 [Compound 97] | 21 | 40 | – | –
Cc1ccc(Nc2c(-c3ccc(F)cc3)nc3n2CCN(C(=O)[C@@H](N)c2ccccc2)C3)cc1 [Compound 98] | 8 | 10 | – | –
Cc1ccc(Nc2c(-c3ccc(F)cc3)nc3n2CCN(C(=O)C2(O)CC2)C3)cc1 [Compound 99] | 658 | 810 | – | –
Cc1ccc(Nc2c(-c3ccc(F)cc3)nc3n2CCN(C(=O)CC(C)(C)O)C3)cc1 [Compound 100] | 143 | 150 | – | –
CC(=O)NCCCC[C@H](N)C(=O)N1CCn2c(nc(-c3ccc(F)cc3)c2Nc2ccc(C)cc2)C1 [Compound 101] | 4370 | 5090 | – | –
Cc1ccc(Nc2c(-c3ccc(F)cc3)nc3n2CCN(C(=O)[C@H](N)CCCCNC(=O)C(F)(F)F)C3)cc1 [Compound 102] | 426 | 650 | – | –
Cc1ccc(Nc2c(-c3ccc(F)cc3)nc3n2CCN(C(=O)C(O)C(C)C)C3)cc1 (stereo not drawn) [Compound 104] | 7 | 10 | – | –
Cc1ccc(Nc2c(-c3ccc(F)cc3)nc3n2CCN(C(=O)C(O)c2ccc(F)cc2)C3)cc1 (stereo not drawn) [Compound 107] | 10 | 10 | – | –
Cc1ccc(Nc2c(-c3ccc(F)cc3)nc3n2CCN(C(=O)[C@@H](O)C(C)(C)C)C3)cc1 [Compound 110] | 15 | 20 | – | –
Cc1ccc(Nc2c(-c3ccc(F)cc3)nc3n2CCN(C(=O)C2(O)CCCC2)C3)cc1 [Compound 116] | 1510 | 1640 | – | –
Cc1ccc(Nc2c(-c3ccc(F)cc3)nc3n2CCN(C(=O)C2(O)CCCCC2)C3)cc1 [Compound 117] | 1190 | 1260 | – | –
Cc1ccc(Nc2c(-c3ccc(F)cc3)nc3n2CCN(C(=O)[C@@H](O)CCc2ccccc2)C3)cc1 [Compound 118] | 135 | 150 | – | –
Cc1ccc(Nc2c(-c3ccc(F)cc3)nc3n2CCN(C(=O)CC(C)(O)C(F)(F)F)C3)cc1 (stereo not drawn) [Compound 120] | 123 | 110 | – | –
Cc1ccc(Nc2c(-c3ccc(F)cc3)nc3n2CCN(C(=O)[C@H](O)C2CCCCC2)C3)cc1 [Compound 121] | 33 | 20 | – | –
COc1ccc(C(O)C(=O)N2CCn3c(nc(-c4ccc(F)cc4)c3Nc3ccc(C)cc3)C2)cc1 (stereo not drawn) [Compound 122] | 154 | 180 | – | –
Cc1ccc(Nc2c(-c3ccc(F)cc3)nc3n2CCN(C(=O)C(O)c2cccc(C(F)(F)F)c2)C3)cc1 (stereo not drawn) [Compound 124] | 28 | 40 | – | –

SMILES | EC50 (W2 strain; Erythrocyte) [nM] | EC50 (3D7 P. falciparum strain; [1]) [nM] | EC50 (W2 strain) [nM] | EC50 (3D7 P. falciparum strain) [nM]
COC(C(=O)N1CCn2c(nc(-c3ccc(F)cc3)c2Nc2ccc(C)cc2)C1)c1ccccc1 (stereo not drawn) [Compound 125] | 44 | 50 | – | –
Cc1ccc(Nc2c(-c3ccc(F)cc3)nc3n2CCN(C(=O)C(O)c2ccc(Br)cc2)C3)cc1 (stereo not drawn) [Compound 126] | 80 | 100 | – | –
Cc1ccc(Nc2c(-c3ccc(F)cc3)nc3n2CCN(C(=O)C(O)c2ccc(C(F)(F)F)cc2)C3)cc1 (stereo not drawn) [Compound 127] | 51 | 60 | – | –
COC(C(=O)N1CCn2c(nc(-c3ccc(F)cc3)c2Nc2ccc(C)cc2)C1)(c1ccccc1)C(F)(F)F (stereo not drawn) [Compound 128] | 743 | 1180 | – | –
Cc1ccc(Nc2c(-c3ccc(F)cc3)nc3n2CCN(C(=O)C(O)c2cccc(O)c2)C3)cc1 (stereo not drawn) [Compound 129] | 6 | 10 | – | –
Cc1ccc(Nc2c(-c3ccc(F)cc3)nc3n2CCN(C(=O)C(O)c2ccccc2Cl)C3)cc1 (stereo not drawn) [Compound 131] | 30 | 40 | – | –
Cc1ccc(Nc2c(-c3ccc(F)cc3)nc3n2CCN(C(=O)C(O)c2ccc(Br)cc2F)C3)cc1 (stereo not drawn) [Compound 132] | 82 | 100 | – | –
Cc1ccc(Nc2c(-c3ccc(F)cc3)nc3n2CCN(C(=O)C(O)c2ccc(Cl)cc2)C3)cc1 (stereo not drawn) [Compound 133] | 39 | 50 | – | –
Cc1ccc(Nc2c(-c3ccc(F)cc3)nc3n2CCN(C(=O)[C@@H](O)CC(C)C)C3)cc1 [Compound 134] | 7 | 10 | – | –
Cc1ccc(Nc2c(-c3ccc(F)cc3)nc3n2CCN(C(=O)C[C@@H](O)c2ccccc2)C3)cc1 [Compound 135] | 33 | 50 | – | –
Cc1ccc(Nc2c(-c3ccc(F)cc3)nc3n2CCN(C(=O)[C@H](O)c2ccccc2)C3)cc1 [Compound 137] | 12 | 10 | – | –
Cc1ccc(Nc2c(-c3ccc(F)cc3)nc3n2CCN(C(=O)[C@@H](O)c2ccccc2)C3)cc1 [Compound 138] | 15 | 10 | – | –
Cc1ccc(Nc2c(-c3ccc(F)cc3)nc3n2CCN(C(=O)C2(N)CCC2)C3)cc1 [Compound 139] | 165 | 160 | – | –
Cc1ccc(Nc2c(-c3ccc(F)cc3)nc3n2CCN(C(=O)C2(N)CCCC2)C3)cc1 [Compound 140] | 128 | 90 | – | –
Cc1ccc(Nc2c(-c3ccc(F)cc3)nc3n2CCN(C(=O)C2(N)CCCCC2)C3)cc1 [Compound 141] | 90 | 70 | – | –
Cc1ccc(Nc2c(-c3ccc(F)cc3)nc3n2CCN(C(=O)C(N)CC(F)(F)F)C3)cc1 (stereo not drawn) [Compound 142] | 120 | 80 | – | –
CCC(C)(O)CC(=O)N1CCn2c(nc(-c3ccc(F)cc3)c2Nc2ccc(C)cc2)C1 (stereo not drawn) [Compound 143] | 219 | 150 | – | –
Cc1ccc(Nc2c(-c3ccc(F)cc3)nc3n2CCN(C(=O)C(N)C(F)(F)F)C3)cc1 (stereo not drawn) [Compound 144] | 73 | 50 | – | –
Cc1ccc(Nc2c(-c3ccc(F)cc3)nc3n2CCN(C(=O)[C@@H](O)CC2CCCCC2)C3)cc1 [Compound 145] | 68 | 90 | – | –
Cc1ccc(Nc2c(-c3ccc(F)cc3)nc3n2CCN(C(=O)CNCc2ccccc2)C3)cc1 [Compound 146] | 14 | 20 | – | –
CCCN(CCC)CC(=O)N1CCn2c(nc(-c3ccc(F)cc3)c2Nc2ccc(C)cc2)C1 [Compound 147] | 1520 | 2430 | – | –
CCCN(CCC)[C@@H](C)C(=O)N1CCn2c(nc(-c3ccc(F)cc3)c2Nc2ccc(C)cc2)C1 [Compound 148] | 1430 | 4060 | – | –
